Laboratory results published in US20130253048A1, “Pharmaceutical Composition for Promoting Osteogenesis Containing Axial-equatorial Aryl-oriented Furofuran-type Lignan, and Pharmaceutical Preparation, Functional Food Product, and Health Food Product Comprising Composition” (ERINA CO., INC., priority 2010, published 2013).
Marks after values point to notes of the source that are not given here.

What was measured:
[1] = tested on: ovariectomized mouse (OVX mouse); experiment: Bone formation in ovariectomized mouse (OVX mouse), dosing after bone resorption induction period, femur pQCT; type: in vivo; conditions: for Bone strength (polar coordinates torsion strength): compared to Control OVX group; for Bone density of cancellous bone, relative value / Bone density of cortical bone, relative value / Bone density of the whole bones, relative value: 5M Sham = 100; for Bone density of cancellous bone / Bone density of cortical bone / Bone thickness of cortical bone / Cross section area of cortical bone / Perimeter of cortical bone adventitia / Perimeter of cortical bone lining membrane / Bone density of the whole bones: OVX mice, 3 months dosing after 2-month induction; for Bone density of the whole bones: right femur, pQCT
Experimental: Four-week-old female Slc; ddy mice (Japan SLC, Inc.) were purchased, and they were divided into 8 groups without acclimate keeping (6 mice per group). They were anesthetized by using 50 mg/kg of pentobarbital to be ovariectomized (it is referred to as “OVX” herein below) or to have Sham operation (it is referred to as “Sham” herein below) under the anesthesia which is given by intraperitoneal administration of 50 mg/kg of Somnopentyl (pentobarbital sodium).
From the second day of the ovariectomy (or Sham operation), each group was maintained under the condition of 12 hour light/dark cycle, 23±3 degree centigrade as the room temperature, and humidity 55±5% for 2 months as the bone resorption induction period. The animal bedding was exchanged twice a week and all fresh bedding was used at all times. CRF-1 (Oriental Yeast Co., Ltd.) as the feed and deionized water as drinking water were freely given.
After two month period from the test start, the bone resorption induction period, the test substance were given to each group at the amount shown in the following Table 7 for 3 month.
Ninety % of MeOH fraction (Shin-i) obtained in Example 1 and Fargesin (may refer to “Far” thereafter) were respectively dissolved into TD solution at the concentration shown in Table 7, and then they were administrated per os.
Human PTH (1-34) (herein below, it is sometimes referred to as “hPTH (1-34)”) were dissolved in distilled water at the concentration of 80 μg/kg/day, and it was administrated subcutaneously.
After 3 month from the administration start, the mice belonging to all of the groups were weighed. They were anesthetized by using diethylether, and were collected their blood from their hearts, and then they were died. Then, organs such as the uterus, the white adipose tissue (WAT), the brown adipose tissue (BAT), the liver, the spleen, and both left and right lower extremities were removed. The left and right lower extremities were separated into the femurs and the tibias, and they were stored in 70% EtOH under the room temperature.
The muscles were removed from the obtained femur (right), and then its bone density and the like were measured by using pQCT employed in Example 1 under the following conditions.
Recognition of contour (CONTMODE): 2 (auto search of ROI)
Recognition method of cancellous bone: Surface & Area
Ration of cancellous bone area to all of the cross section areas: 35%
CORTMODE used in CORTBD: 1* * Voxels not larger than the standard value for distinguishing the cortical bone from the cancellous bone (threshold: threshold) were omitted. Each tissue weight was also measured.
TH value used in CORTBD: 690
Among the all data of cancellous bone density obtained from pQCT, both of the highest and the lowest data were deleted to obtain the Median. As to the other parameters were treated as the same as this, the graph was made with N=6. Statistical analysis was performed by using the Dennett's two-sided t test.

[2] = tested on: mouse monocyte macrophage type cells under RANKL stimulation; conditions: cited from earlier work
[3] = tested on: osteopenia mouse caused by sRANKL administration; experiment: Osteopenia mouse caused by sRANKL administration, femur pQCT; type: in vivo; conditions: for Bone density of the cancellous bone, relative value / Bone density of the cortical bone, relative value / Bone density of whole bone, relative value: RANKL group = 100.0; for Bone density of the cancellous bone / Bone density of the cortical bone / Bone density of whole bone: day 4 to 13; for Bone density of whole bone: right femur, pQCT
Experimental: C57BL/6NCrlCrlj mice (6-week-age, female) were purchased from Oriental Yeast Co., Ltd. and kept to be acclimatized under the conditions of 12 hour light/dark cycle, 23±3 degree centigrade, and humidity 55±5% for 7 days. Two mice were in a cage, and the animal bedding was changed twice a week, and all fresh animal bedding was used at all times. As the feed, CRF-1 (Oriental Yeast Co., Ltd.), and deionized water as the drinking water were freely taken.
After the acclimatization, these mice were randomly divided into 4 groups (8 mice per group), sRANKL administration group and fargesin administration groups. Fargesin administration groups had 0.2 mg/kg/day administration group (it is referred to as “Far 0.2”, hereinbelow), 2 mg/kg/day administration group (it is referred to as “Far 2” herein below), and 20 mg/kg/day administration group (it is referred to as “Far 20” herein below). sRANKL (1 mg/kg/day, i.p) was administered to all mice on the first day and the second day from test start to cause osteopenia experimentally.
From the 4th day to 13th day after the test start, distilled water or the test compounds shown in the following Table 10 were daily administered to the mice in each group.
After the administration period was finished and the experiment was completed, the femurs were removed in the same way as employed in Example 6 to be excised to evaluate the bone density. Body weight of the test animals and feed intake by the test animals were measured twice a week during the administration period.
The experiments were performed as the same as done in Example 6, right femur chosen from the obtained femurs was used for measurement of the bone density.
The whole bone density, the cancellous bone density, the cortical bone density, the boundary length of the cortical bone adventitia, the length of the cortical bone endosteum, and the bone strength were measured at the site of −0.6 mm from the growth plate of the bone (see FIG. 3A).

[4] = sRANKL-treated mice, Far 0.2: 0.2 mg/kg/day p.o.
[5] = sRANKL-treated mice, Far 2: 2 mg/kg/day p.o.
[6] = sRANKL-treated mice, Far 20: 20 mg/kg/day p.o.

SMILES: COc1ccc([C@@H]2OC[C@H]3[C@@H]2CO[C@@H]3c2ccc3c(c2)OCO3)cc1OC [fargesin, Fargesin]
- Bone strength (polar coordinates torsion strength) ([1]; 2 mg administration group p.o.): significantly increased
- Bone strength (polar coordinates torsion strength) ([1]; 40 mg administration group p.o.): significantly increased
- Bone density of cancellous bone, relative value ([1]; Far 2: 2 mg/kg/day p.o.): 54.9
- Bone density of cortical bone, relative value ([1]; Far 2: 2 mg/kg/day p.o.): 92.7
- Bone density of the whole bones, relative value ([1]; Far 2: 2 mg/kg/day p.o.): 81.4
- Bone density of cancellous bone, relative value ([1]; Far 20: 20 mg/kg/day p.o.): 58.5
- Bone density of cortical bone, relative value ([1]; Far 20: 20 mg/kg/day p.o.): 92.9
- Bone density of the whole bones, relative value ([1]; Far 20: 20 mg/kg/day p.o.): 83.1
- Bone density of cancellous bone, relative value ([1]; Far 40: 40 mg/kg/day p.o.): 79.2
- Bone density of cortical bone, relative value ([1]; Far 40: 40 mg/kg/day p.o.): 90.4
- Bone density of the whole bones, relative value ([1]; Far 40: 40 mg/kg/day p.o.): 85.7
- Bone density of cancellous bone ([1]; Far 2: 2 mg/kg/day p.o.): 64.10 ± 25.48 mg/cm^2
- Bone density of cortical bone ([1]; Far 2: 2 mg/kg/day p.o.): 911.65 ± 30.15 mg/cm^2
- Bone thickness of cortical bone ([1]; Far 2: 2 mg/kg/day p.o.): 0.20 ± 0.03 mm
- Cross section area of cortical bone ([1]; Far 2: 2 mg/kg/day p.o.): 1.46 ± 0.23 mm^2
- Perimeter of cortical bone adventitia ([1]; Far 2: 2 mg/kg/day p.o.): 8.02 ± 0.26 mm
- Perimeter of cortical bone lining membrane ([1]; Far 2: 2 mg/kg/day p.o.): 6.79 ± 0.19 mm
- Bone density of the whole bones ([1]; Far 2: 2 mg/kg/day p.o.): 427.83 ± 36.00 mg/cm^2
- Bone density of cancellous bone ([1]; Far 20: 20 mg/kg/day p.o.): 68.22 ± 21.67 mg/cm^2
- Bone density of cortical bone ([1]; Far 20: 20 mg/kg/day p.o.): 914.57 ± 43.90 mg/cm^2
- Bone thickness of cortical bone ([1]; Far 20: 20 mg/kg/day p.o.): 0.20 ± 0.03 mm
- Cross section area of cortical bone ([1]; Far 20: 20 mg/kg/day p.o.): 1.48 ± 0.18 mm^2
- Perimeter of cortical bone adventitia ([1]; Far 20: 20 mg/kg/day p.o.): 8.04 ± 0.55 mm
- Perimeter of cortical bone lining membrane ([1]; Far 20: 20 mg/kg/day p.o.): 6.78 ± 0.68 mm
- Bone density of the whole bones ([1]; Far 20: 20 mg/kg/day p.o.): 437.00 ± 49.48 mg/cm^2
- Bone density of cancellous bone ([1]; Far 40: 40 mg/kg/day p.o.): 92.37 ± 41.29 mg/cm^2
- Bone density of cortical bone ([1]; Far 40: 40 mg/kg/day p.o.): 889.97 ± 23.31 mg/cm^2
- Bone thickness of cortical bone ([1]; Far 40: 40 mg/kg/day p.o.): 0.21 ± 0.02* mm
- Cross section area of cortical bone ([1]; Far 40: 40 mg/kg/day p.o.): 1.56 ± 0.19* mm^2
- Perimeter of cortical bone adventitia ([1]; Far 40: 40 mg/kg/day p.o.): 8.14 ± 0.39 mm
- Perimeter of cortical bone lining membrane ([1]; Far 40: 40 mg/kg/day p.o.): 6.83 ± 0.38 mm
- Bone density of the whole bones ([1]; Far 40: 40 mg/kg/day p.o.): 450.57 ± 33.72 mg/cm^2
- phosphorylation of p38 and I-κB by RANKL stimulation ([2]; RANKL stimulation): inhibits the phosphorylation
- tartrate-resistant acid phosphatase activities ([2]; mouse monocyte macrophage type cells under RANKL stimulation, or marrow monocytoid cells in culture): dose-dependently inhibits
- Bone density of the cancellous bone, relative value ([3]; Far 0.2: 0.2 mg/kg/day p.o.): (100.7)
- Bone density of the cortical bone, relative value ([3]; Far 0.2: 0.2 mg/kg/day p.o.): (98.7)
- Bone density of whole bone, relative value ([3]; Far 0.2: 0.2 mg/kg/day p.o.): 99.5
- Bone density of the cancellous bone, relative value ([3]; Far 2: 2 mg/kg/day p.o.): (104.0)
- Bone density of the cortical bone, relative value ([3]; Far 2: 2 mg/kg/day p.o.): (98.9)
- Bone density of whole bone, relative value ([3]; Far 2: 2 mg/kg/day p.o.): 99.5
- Bone density of the cancellous bone, relative value ([3]; Far 20: 20 mg/kg/day p.o.): (129.4)*
- Bone density of the cortical bone, relative value ([3]; Far 20: 20 mg/kg/day p.o.): (98.6)
- Bone density of whole bone, relative value ([3]; Far 20: 20 mg/kg/day p.o.): 110
- bone strength, Polar coordinates strength (SSI) ([3]; sRANKL-treated mice, 0.2 to 20 mg/kg/day p.o.): trend that the bone strength was improved
- Bone density of the cancellous bone [3, 4]: 261.64 ± 17.92 mg/mL
- Bone density of the cortical bone [3, 4]: 797.40 ± 6.12 mg/mL
- Bone density of whole bone [3, 4]: 484.33 ± 11.09 mg/mL
- Bone density of the cancellous bone [3, 5]: 270.30 ± 20.64 mg/mL
- Bone density of the cortical bone [3, 5]: 798.60 ± 4.56 mg/mL
- Bone density of whole bone [3, 5]: 487.30 ± 16.36 mg/mL
- Bone density of the cancellous bone [3, 6]: 336.25 ± 13.50 mg/mL
- Bone density of the cortical bone [3, 6]: 796.33 ± 3.89 mg/mL
- Bone density of whole bone [3, 6]: 532.69 ± 8.06 mg/mL
